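GI50 marks 50% less growth. The concentration for full growth arrest is given as TGI.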
Key:
Test in all cases: inhibition of tumour cell growth, NCI panel, 384-well format
[1] = system: OVCAR-4 ovarian
[2] = system: NCI-H226 lung
[3] = system: OVCAR-5 ovarian
[4] = system: EKVX NSCLC
[5] = system: HOP-92 NSCLC
[6] = system: K-562 leukemia
[7] = system: CCRF-CEM leukemia
[8] = system: HS 578T breast
[9] = system: 786-0 renal
[10] = system: SK-MEL-5 melanoma
[11] = system: TK-10 renal
[12] = system: SF-295 CNS
[13] = system: ACHN renal
[14] = system: RXF 393 renal
[15] = system: HOP-62 NSCLC
[16] = system: SNB-75 CNS
[17] = system: MOLT-4 leukemia
[18] = system: UACC-62 melanoma
[19] = system: OVCAR-8 ovarian
[20] = system: SK-MEL-2 melanoma
[21] = system: MCF7 breast
[22] = system: SR leukemia
[23] = system: MALME-3M melanoma
[24] = system: NCI-H23 lung
[25] = system: A498 renal
[26] = system: BT-549 breast
[27] = system: SK-OV-3 ovarian
[28] = system: T-47D breast
[29] = system: KM12 colon
[30] = system: NCI-H522 lung
[31] = system: HCT-15 colon
[32] = system: SN12C renal
[33] = system: SF-268 CNS
[34] = system: NCI/ADR-RES ovarian
[35] = system: SK-MEL-28 melanoma
[36] = system: MDA-MB-468 breast
[37] = system: UACC-257 melanoma
[38] = system: SW-620 colon
[39] = system: MDA-MB-435 melanoma
[40] = system: UO-31 renal
[41] = system: HT29 colon
[42] = system: COLO 205 colon
[43] = system: NCI-H460 NSCLC
[44] = system: U251 glioblastoma
[45] = system: SF-539 CNS
[46] = system: A549 NSCLC
[47] = system: PC-3 prostate

CC1(N)CCN(c2cccnc2NC(=O)c2nc(-c3ncccc3C(F)(F)F)cnc2N)CC1
GI50 [1]: > 69.4 µM | TGI [1]: > 100 µM | GI50 [2]: 16.9 µM | TGI [2]: 47.4 µM | GI50 [3]: 16.8 µM | TGI [3]: 48.1 µM | GI50 [4]: 7.15 µM | TGI [4]: 38.9 µM | GI50 [5]: 20.4 µM | TGI [5]: 57.6 µM | GI50 [6]: 16.3 µM | TGI [6]: 31.3 µM | GI50 [7]: 15.4 µM | TGI [7]: 28.9 µM | GI50 [8]: 15.9 µM | TGI [8]: 33.2 µM | GI50 [9]: 8.25 µM | TGI [9]: 24 µM | GI50 [10]: 18.2 µM | TGI [10]: 34.3 µM | GI50 [11]: 7.5 µM | TGI [11]: 26.1 µM | GI50 [12]: > 49.3 µM | TGI [12]: > 72.6 µM | GI50 [13]: 22.7 µM | TGI [13]: > 94.7 µM | GI50 [14]: 12.5 µM | TGI [14]: 25.5 µM | GI50 [15]: 28.8 µM | TGI [15]: > 77.6 µM | GI50 [16]: 17 µM | TGI [16]: 48.2 µM | GI50 [17]: 12.8 µM | TGI [17]: 25.6 µM | GI50 [18]: 19.4 µM | TGI [18]: > 53.4 µM | GI50 [19]: 30.9 µM | TGI [19]: > 70.5 µM | GI50 [20]: 18.4 µM | TGI [20]: 47.2 µM | GI50 [21]: 24.6 µM | TGI [21]: > 54.9 µM | GI50 [22]: 9.47 µM | TGI [22]: 21.5 µM | GI50 [23]: 14.8 µM | TGI [23]: 28.1 µM | GI50 [24]: 29.7 µM | TGI [24]: > 78.7 µM | GI50 [25]: 8.29 µM | TGI [25]: 22.8 µM | GI50 [26]: 8.16 µM | TGI [26]: 20.6 µM | GI50 [27]: 17.8 µM | TGI [27]: 38.6 µM | GI50 [28]: 11.6 µM | TGI [28]: 26.9 µM | GI50 [29]: 0.308 µM | TGI [29]: 20.2 µM | GI50 [30]: 4.86 µM | TGI [30]: 18.8 µM | GI50 [31]: 20.7 µM | TGI [31]: 56.3 µM | GI50 [32]: 21 µM | TGI [32]: 56.8 µM | GI50 [33]: 19.9 µM | TGI [33]: 47 µM | GI50 [34]: > 100 µM | TGI [34]: > 100 µM | GI50 [35]: 24.2 µM | TGI [35]: > 62.3 µM | GI50 [36]: 13.6 µM | TGI [36]: 28.2 µM | GI50 [37]: 7.77 µM | TGI [37]: 20.8 µM | GI50 [38]: 19.3 µM | TGI [38]: 60.6 µM | GI50 [39]: > 56.1 µM | TGI [39]: > 100 µM | GI50 [40]: 31 µM | TGI [40]: > 100 µM | GI50 [41]: 17.2 µM | TGI [41]: > 58.8 µM | GI50 [42]: 17.9 µM | TGI [42]: > 54.6 µM | GI50 [43]: 17.6 µM | TGI [43]: 32.4 µM | GI50 [44]: 13.6 µM | TGI [44]: 30.5 µM | GI50 [45]: 24 µM | TGI [45]: > 51.2 µM | GI50 [46]: 25 µM | TGI [46]: > 65 µM | GI50 [47]: 16.7 µM | TGI [47]: 57 µM
